Experimental data taken from publication PMC5471912, “Integrated metabolome and transcriptome analysis of Magnolia champaca identifies biosynthetic pathways for floral volatile organic compounds” (BMC Genomics, 2017).

Molecular target: T1, McTPS1 (Magnolia champaca, UniProt A0A1Y0BW36)
T1 construct: gene TPS1; full-length ORF (plastid transit peptide apparently kept), N-terminal 6His tag (pDEST17), E. coli BL21 pLysS, Ni-NTA purified
T1 sequence (A0A1Y0BW36 1-581): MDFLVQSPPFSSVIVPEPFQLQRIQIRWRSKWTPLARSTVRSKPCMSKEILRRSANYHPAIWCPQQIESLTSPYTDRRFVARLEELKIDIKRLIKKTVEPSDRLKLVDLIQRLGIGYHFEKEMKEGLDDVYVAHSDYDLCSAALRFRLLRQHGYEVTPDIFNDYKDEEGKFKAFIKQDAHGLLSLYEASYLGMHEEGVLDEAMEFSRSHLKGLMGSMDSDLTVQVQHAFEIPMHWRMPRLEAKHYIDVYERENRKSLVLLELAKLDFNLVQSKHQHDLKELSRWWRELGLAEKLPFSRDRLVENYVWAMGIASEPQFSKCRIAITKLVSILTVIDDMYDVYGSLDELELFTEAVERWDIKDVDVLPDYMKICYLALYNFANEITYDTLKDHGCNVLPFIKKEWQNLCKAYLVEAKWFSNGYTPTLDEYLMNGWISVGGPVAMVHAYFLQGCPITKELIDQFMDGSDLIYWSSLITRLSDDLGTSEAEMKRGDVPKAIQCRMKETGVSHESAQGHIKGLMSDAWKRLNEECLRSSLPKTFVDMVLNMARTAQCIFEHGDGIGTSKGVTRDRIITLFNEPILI
Experiment: in vitro TPS assay, chiral phase GC-MS
Format: biochemical
Settings: 25 mM HEPES pH 7.4, 100 mM KCl, 7.5 mM MgCl2, 5 mM DTT (1X of the 2X buffer), 30 °C, 2 h

Structure (SMILES)	in vitro TPS assay, chiral phase GC-MS	in vitro TPS assay, chiral phase GC-MS (from GPP)
CC(C)=CCC/C(C)=C/COP(=O)(O)OP(=O)(O)O [geranyl diphosphate]	McTPS1 reacted with GPP to produce (R)-linalool, a monoterpene alcohol	–
C=C[C@](C)(O)CCC=C(C)C [(R)-linalool]	–	our in vitro assays identified McTPS1 as the (R)-linalool synthase
